Patent US20220174947A1, “ANTIMICROBIAL MIXTURE CONTAINING 4-(3-ETHOXY-4-HYDROXYPHENYL)BUTAN-2-ONE AND AN ALCOHOL COMPOUND, AND COSMETIC COMPOSITION CONTAINING SAME” (L'OREAL, priority 2018, published 2022)
Values belong to the molecule of their own block, whether it stands above or below them.

Assays:
Assay in all cases: Synergistic antimicrobial activity as MIC, 96-well microplate, optical density at 620 nm
Format in all cases: cell-based
Details in all cases: for microbial growth percentage: 0 A
[1] = test system: Aspergillus niger ATCC 6275
Text: (§1) FIC Index=(MIC of A with B/MIC of A)+(MIC of B with A/MIC of B [Math. 1]
(§2) with: • MIC of A with B: minimum concentration of product A in the combination A+B which makes it possible to obtain an inhibitory effect; • MIC of B with A: minimum concentration of product B in the combination A+B which makes it possible to obtain an inhibitory effect; • MIC of A: minimum inhibitory concentration of product A alone; • MIC of B: minimum inhibitory concentration of product B alone. This formula was described for the first time in the article by F. C. Kull, P. C. Eisman, H. D. Sylwestrowka, and R. L. Mayer, Applied Microbiology 9:538-541, 1961.
The microbial strain Aspergillus niger ATCC 6275, and a double-concentration Sabouraud broth liquid culture medium supplemented with polyoxyethylenated (20 OE) sorbitan monopalmitate (Tween 40 from Croda) and Phytagel© BioReagent were used (i.e. a mixture of 5 g of Phytagel+0.6 g of Tween 40+60 g of Sabouraud broth).
(§3) A 96-well microplate at an incubation temperature of 32.5° C. is used.
(§4) The incubation time of the microplate is: • from 24 to 30 h under aerobic conditions for microbial Aspergillus niger ATCC 6275; • from 18 to 24 h under aerobic conditions for Candida albicans ATCC 10231, Pseudomonas aeruginosa ATCC 9027 and Staphylococcus aureus ATCC 6538; • from 24 to 48 h under aerobic conditions for Enterococcus faecalis ATCC 33186.
(§5) For each compound: A=4-(3-ethoxy-4-hydroxyphenyl) butan-2-one compound B=alcohol compound A 10% (weight/volume) stock solution was prepared by mixing 1 g of compound in 9 ml of aqueous 1% agar solution. Successive dilutions were made with the 1% agar solution.
(§6) 50 μl of each of the daughter solutions obtained containing compound A or B are added to the microplate wells. 100 μl of Sabouraud liquid nutrient broth inoculated at double concentration with the Aspergillus niger strain and 50 μl of aqueous 1% agar solution are also added thereto.
(§7) 50 μl of each of the daughter solutions obtained containing compound A and 50 μl of each of the daughter solutions obtained containing compound B are added to the microplate wells. 100 μl of Sabouraud liquid nutrient broth inoculated at double concentration with the strain Aspergillus niger are also added thereto.
(§8) A positive microbial growth control was also prepared. The positive microbial growth control corresponds to a mixture of 100 μl of aqueous 1% agar solution with 100 μl of Sabouraud liquid nutrient broth inoculated at double concentration with the strain Aspergillus niger in the absence of compounds A and B.
(§9) An absorbance control was performed in parallel on compounds A and B alone. This control corresponds to 100 μl of double concentration sterile Sabouraud liquid nutrient broth+100 μl of double concentration compound A or B.
(§10) In the three cases (absorbance control, growth control and test), the final volume present in each of the microplate wells is 200 μl.
In the two cases (test and control), the inoculum represents the concentration of the Aspergillus niger strain present in the final volume of the wells (200 μl) and is between 2 and 6×10^5 cfu/ml of Aspergillus niger.

[2] = test system: Candida albicans ATCC 10231
Text: with: • MIC of A with B: minimum concentration of product A in the combination A+B which makes it possible to obtain an inhibitory effect; • MIC of B with A: minimum concentration of product B in the combination A+B which makes it possible to obtain an inhibitory effect; • MIC of A: minimum inhibitory concentration of product A alone; • MIC of B: minimum inhibitory concentration of product B alone. This formula was described for the first time in the article by F. C. Kull, […], and R. L. Mayer, Applied Microbiology 9:538-541, 1961. […] When the FIC index value is less than or equal to 1, it is considered that the combination of test compounds has a synergistic effect. […] A 96-well microplate at an incubation temperature of 32.5° C. is used. […] For each compound: […] 50 μl of each of the daughter solutions obtained containing compound A and 50 μl of each of the daughter solutions obtained containing compound B are added to the microplate wells. 100 μl of Sabouraud liquid nutrient broth inoculated at double concentration with the strain Aspergillus niger are also added thereto. A positive microbial growth control was also prepared. […] An absorbance control was performed in parallel on compounds A and B alone. This control corresponds to 100 μl of double concentration sterile Sabouraud liquid nutrient broth+100 μl of double concentration compound A or B. […] The test as described above (tests, absorbance control and growth control) was performed again to test the combination A+B on the following strains Enterococcus faecalis, Staphylococcus aureus, Pseudomonas aeruginosa, Candida albicans, where appropriate.

[3] = test system: Staphylococcus aureus ATCC 6538
Text: as §1, §2
The microbial strain Staphylococcus aureus ATCC 6538 and a double-concentration nutrient broth liquid culture medium were used.
as §3, §4, §5, §6, §7, §8, §9, §10
(§11) The test as described above (tests, absorbance control and growth control) was performed again to test the combination A+B on the following strains Enterococcus faecalis, Staphylococcus aureus, Pseudomonas aeruginosa, Candida albicans, where appropriate.

[4] = test system: Pseudomonas aeruginosa ATCC 9027
Text: with: • MIC of A with B: minimum concentration of product A in the combination A+B which makes it possible to obtain an inhibitory effect; • MIC of B with A: minimum concentration of product B in the combination A+B which makes it possible to obtain an inhibitory effect; • MIC of A: minimum inhibitory concentration of product A alone; • MIC of B: minimum inhibitory concentration of product B alone. This formula was described for the first time in the article by F. C. Kull, […], and R. L. Mayer, Applied Microbiology 9:538-541, 1961. […] When the FIC index value is less than or equal to 1, it is considered that the combination of test compounds has a synergistic effect. The microbial strain Pseudomonas aeruginosa ATCC 9027 and a double-concentration nutrient broth liquid culture medium were used. A 96-well microplate at an incubation temperature of 32.5° C. is used. […] For each compound: […] 50 μl of each of the daughter solutions obtained containing compound A and 50 μl of each of the daughter solutions obtained containing compound B are added to the microplate wells. 100 μl of Sabouraud liquid nutrient broth inoculated at double concentration with the strain Aspergillus niger are also added thereto. A positive microbial growth control was also prepared. […] An absorbance control was performed in parallel on compounds A and B alone. This control corresponds to 100 μl of double concentration sterile Sabouraud liquid nutrient broth+100 μl of double concentration compound A or B. […] The test as described above (tests, absorbance control and growth control) was performed again to test the combination A+B on the following strains Enterococcus faecalis, Staphylococcus aureus, Pseudomonas aeruginosa, Candida albicans, where appropriate.

[5] = test system: Enterococcus faecalis ATCC 33186
Text: as §1, §2
The microbial strain Enterococcus faecalis ATCC 33186 and a double-concentration BHI (Brain Heart Infusion) broth liquid culture medium were used.
as §3, §4, §5, §6, §7, §8, §9, §10, §11

[6] = Aspergillus niger, growth <= 25%
[7] = Staphylococcus aureus, growth <= 25%
[8] = Enterococcus faecalis, growth <= 25%

% MIC of B5 alone [1, 6]: 0.5%
% MIC of B5 alone ([2]; Candida albicans, growth <= 25%): 0.25%
Molecule: Cc1cc(O)cc(C)c1Cl [B5, 4-chloro-3,5-dimethylphenol]
microbial growth percentage ([1]; 0.0625 B5 weight %): 99%
microbial growth percentage ([1]; 0.125 B5 weight %): 103%
microbial growth percentage ([1]; 0.25 B5 weight %): 31%
microbial growth percentage ([1]; 0.5 B5 weight %): −6%
microbial growth percentage ([2]; 0.0625 B5 weight %): 73%
microbial growth percentage ([2]; 0.125 B5 weight %): 28%
microbial growth percentage ([2]; 0.25 B5 weight %): 1%

% MIC of B6 alone [3, 7]: 1%
% MIC of B6 alone ([4]; Pseudomonas aeruginosa, growth <= 25%): 0.4%
% MIC of B6 alone [5, 8]: 0.5%
Molecule: CCCCCCCC(=O)OCC(O)CO (centres unmarked) [B6, glyceryl caprylate]
microbial growth percentage ([3]; 0.0625 B6 weight %): 83%
microbial growth percentage ([3]; 0.125 B6 weight %): 87%
microbial growth percentage ([3]; 0.25 B6 weight %): 53%
microbial growth percentage ([3]; 0.5 B6 weight %): 48%
microbial growth percentage ([3]; 1 B6 weight %): 9%
microbial growth percentage ([4]; 0.1 B6 weight %): 123%
microbial growth percentage ([4]; 0.2 B6 weight %): 109%
microbial growth percentage ([4]; 0.4 B6 weight %): −40%
microbial growth percentage ([5]; 0.125 B6 weight %): 57%
microbial growth percentage ([5]; 0.25 B6 weight %): 22%
microbial growth percentage ([5]; 0.5 B6 weight %): 8%
microbial growth percentage ([5]; 0.625 B6 weight %): 38%

% MIC of B3 alone [1, 6]: 0.1%
% MIC of B3 alone [5, 8]: 1%
Molecule: sorbitan caprylate [B3]
microbial growth percentage ([1]; 0.025 B3 weight %): 50%
microbial growth percentage ([1]; 0.05 B3 weight %): 30%
microbial growth percentage ([1]; 0.1 B3 weight %): −2%
microbial growth percentage ([5]; 0.125 B3 weight %): 134%
microbial growth percentage ([5]; 0.25 B3 weight %): 61%
microbial growth percentage ([5]; 0.5 B3 weight %): 62%
microbial growth percentage ([5]; 1 B3 weight %): 2%

The next lines start with the molecule.

Molecule: Oc1cc(Cl)ccc1Oc1ccc(Cl)cc1Cl [B2, 5-chloro-2-(2,4-dichlorophenoxy)phenol]
microbial growth percentage ([3]; 0.125 B2 weight %): 46%
microbial growth percentage ([3]; 0.25 B2 weight %): 14%
% MIC of B2 alone [3, 7]: 0.25%

Molecule: CC(=O)c1ccc(O)cc1 [B1, 4-hydroxyacetophenone]
microbial growth percentage ([1]; 0.0625 B1 weight %): 86%
microbial growth percentage ([1]; 0.125 B1 weight %): 72%
microbial growth percentage ([1]; 0.25 B1 weight %): 79%
microbial growth percentage ([1]; 0.5 B1 weight %): 6%
% MIC of B1 alone [1, 6]: 0.5%
